# Laboratory results published in publication PMC7351949, “Molecular basis for the distinct functions of redox-active and FeS-transfering glutaredoxins” (Nature Communications, 2020).
# What was measured:
# [1] = target: T1, Grx2 (Homo sapiens, UniProt Q9NS18); assay: UV/Vis spectroscopy of reconstituted holo-complex; format: binding; settings: bridges a dimer, co-ligated by two GSH; reconstituted with GSH, cysteine, iron and IscS, pH 8.0
# T1 construct: gene GLRX2; Grx2c, His-tagged, recombinant from E. coli, IMAC purified; monomeric apo form, dimeric as Fe2S2 holo-complex
# T1 sequence (Q9NS18 1-165 isoform Q9NS18-2): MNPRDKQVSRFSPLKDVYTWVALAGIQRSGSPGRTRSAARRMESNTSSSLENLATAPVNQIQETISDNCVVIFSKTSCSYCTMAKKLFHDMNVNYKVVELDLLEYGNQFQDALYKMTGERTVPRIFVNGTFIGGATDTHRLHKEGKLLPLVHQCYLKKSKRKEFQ
# [2] = target: T2, Grx5 (Homo sapiens, UniProt Q86SX6); assay: UV/Vis spectroscopy of reconstituted holo-complex; format: binding; settings: bridges a dimer, co-ligated by two GSH; reconstituted with GSH, cysteine, iron and IscS, pH 8.0
# T2 construct: gene GLRX5; transit peptide removed (forward primer encodes M-GSGAG...), pET15b, His-tagged, recombinant from E. coli, IMAC purified; dimeric as Fe2S2 holo-complex
# T2 sequence (Q86SX6 33-157): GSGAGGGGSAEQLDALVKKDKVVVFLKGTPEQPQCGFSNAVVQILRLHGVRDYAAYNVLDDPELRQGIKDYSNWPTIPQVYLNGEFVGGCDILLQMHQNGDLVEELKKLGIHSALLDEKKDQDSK
# [3] = target: T3, AtGrxC1 (Arabidopsis thaliana, UniProt Q8L8T2); assay: HED assay, NADPH / glutathione reductase coupled; format: biochemical; settings: read-out: HED assay / Km app (HED) / μM; 1 mM GSH, 200 µM NADPH, yeast glutathione reductase, 100 mM potassium phosphate pH 7.8; actual substrate is the mixed disulfide βME-SG formed from HED and GSH
# T3 construct: gene GRXC1; His-tagged, recombinant, IMAC purified
# T3 sequence (Q8L8T2 whole entry): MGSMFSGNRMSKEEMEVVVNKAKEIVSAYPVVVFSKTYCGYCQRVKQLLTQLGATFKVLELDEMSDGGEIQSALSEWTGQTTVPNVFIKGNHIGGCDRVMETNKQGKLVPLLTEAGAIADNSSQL
# Text: HED assay, NADPH / glutathione reductase coupled on AtGrxC1
SMILES,UV/Vis spectroscopy of reconstituted holo-complex [1],UV/Vis spectroscopy of reconstituted holo-complex [2],Km [3]
[S]1[Fe][S][Fe]1 [Fe2S2 cluster],The UV/VIS spectra (Fig. 4a) demonstrate the ability of all proteins to form FeS,The UV/VIS spectra (Fig. 4a) demonstrate the ability of all proteins to form FeS,–
OCCSSCCO [HED],–,–,773 ± 164 µM
